In patent US12448388B2, “PRMT5 inhibitors and uses thereof” (Gilead Sciences, Inc., priority 2023, dated 2025):
Values after ≈ are worked out from the molar mass of the structure shown. Where two headings read alike, the source gives them in different places.

Assays:
[1] = Cell viability assay (CellTiter-Glo, 7 days), HCT116 WT; type: cell-based; conditions: human, HCT116 WT cells, 7 days of treatment, CTG
Description: Control compounds were analyzed in parallel each time for quality control. In Brief, on Day -1, a serial dilution of stock compounds in DMSO was performed using BioMek liquid handlers and dispensed using Echo acoustic dispenser into 384 well plates. Both tool compounds and sample compounds were spotted in the same plate for a dose response of PRMT5 inhibitors. Compound plates were stored as frozen until the cells were ready for seeding. […] After equilibrating the plate in room temperature, the cells were incubated for 7 days inside the sealed incubator set at 37° C. with 90% humidity and 5% CO2. On Day 7, the viability of cells was measured using a CTG assay kit (CellTitre-Glo;Promega cat no. G7573). Shortly, 40 μl per well of luminescent cell viability assay reagent were dispensed using EL460 liquid dispenser 5 μl cassette. CTG luminescence signal was measured using an EnVision plate reader (PerkinElmer) in accordance with manufacturer's instruction. […] Selectivity with * is artificially high due to limited solubility of the compound hampering accurate measurement of WT CC50.

[2] = MDR1/BCRP assay: permeability in cPgp-KO-MDCK-WT cells; type: in vitro ADME; conditions: dog, pH 7.4
Description: The cells were maintained in an incubator at 37° C., 90% humidity, and 5% CO2 until reaching confluence over 5 days in 96-well transwell plates. Experiments were conducted using an HBSS donor buffer (Invitrogen) containing 10 mM HEPES and 15 mM glucose, adjusted to pH 7.4. The receiver well contained HBSS buffer supplemented with 1% BSA, 10 mM HEPES, and 15 mM glucose, and the pH was adjusted to 7.4. TEER values were measured to assess membrane integrity after an initial equilibration with BSA-free transport buffer for 15 minutes. The experiment was started by adding dosing solutions containing test compounds at 1 μM. Cells were dosed on the apical (A) side or basolateral (B) side at 100 μl and 200 μl, respectively, to determine forward (A to B) and reverse (B to A) permeability. At the 2-hour time point, 50 μl samples were collected from the receiver compartment. Each compound was tested in 2 separate replicate wells for each condition. All samples were immediately collected into plates, and 50 μL of acetonitrile was added. Subsequently, 350 μl of 30:70 methanol: acetonitrile containing internal standard was added to precipitate proteins and stabilize the test compounds. To test for non-specific binding and compound instability, the total amount of the drug was quantified at the end of the experiment and compared to the material present in the original dosing solution as a percentage of the recovery. All samples were analyzed by LC-MS/MS using electrospray ionization.
The apparent permeability, Papp, and % recovery were calculated as follows: […]

[3] = PBS solubility (kinetic solubility from DMSO stocks); type: physicochemical; conditions: 22 °C, aqueous buffer, kinetic from dmso stock; 1x PBS pH 7.4, 1.0% DMSO, 24-hour incubation at ambient temperature
Description: Buffer Preparation: 1×PBS, 7.4: Phosphate Buffered Saline solution 10×, PBS (Fisher Bioreagent, part number BP399-500) 50 mL was added to approximately 450 mL HPLC grade H2O. The volume of the solution was then adjusted to 500 mL for a total dilution factor of 1:10 and a final PBS concentration of 1×. The pH of the final solution was measured and found to be 7.4.
The final DMSO Concentration is 1.0% and maximum theoretical compound concentration is 100 μM (assuming stock concentration of 10 mM). The filter plate was sealed. Following 24-hour incubation at ambient temperature (20.8-24.0° C.), the samples were vacuum filtered, and the filtrates were collected in a 96 well polypropylene plate for analysis. The collection plate was sealed for analysis. Filtrates were injected into the nitrogen detector for quantification on Analiza's Automated Discovery Workstation. The results are reported here in both μM and μg/mL.
Calculation of Results: The equimolar nitrogen response of the detector is calibrated using standards which span the dynamic range of the instrument from 0.08 to 4500 μg/ml nitrogen. The filtrates were quantified with respect to this calibration curve. The calculated solubility values are corrected for background nitrogen present in the DMSO, and the media used to prepare the samples. All reported values for compounds containing adjacent nitrogen atoms in a ring structure should be increased by ˜25%. […] The solubility results presented assume that the samples were free of nitrogen containing impurities and are stable under the assay conditions.

[4] = system: HCT116 MTAP-deleted cell lines; assay: Cell viability assay (CellTiter-Glo, 7 days), HCT116 MTAP-deleted; type: cell-based; conditions: for Selectivity: HCT116 WT CC50 versus HCT116 MTAP^del CC50; for plasma-adjusted CC50 (paCC50): paCC50 = CC50-HCT116-MTAP^del * (% free CCM/% free human plasma); for CC50: Homo sapiens, HCT116 MTAP-deleted
Procedure, shortened: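 Read-out was CellTiter-Glo luminescence after a 7-day incubation (37 °C, 5% CO2) of HCT116 cells, MTAP-deleted or WT, on dose-response compound plates. CC50 values come from each line; where marked *, selectivity is overstated because poor solubility impaired the WT CC50 measurement.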

[5] = system: Symmetric Di-methyl Arginine (SDMA) signal (PRMT5 inhibition) in HCT116 MTAP-deleted cells; assay: Symmetric di-methyl arginine image-based high content screen assay (SDMA assay), HCT116 MTAP-deleted; type: cell-based; conditions: for EC50 selectivity: HCT116 WT vs HCT116 MTAP-deleted; for EC50: Homo sapiens, HCT-116, HCT116 MTAP-deleted, class symbols
Procedure, shortened: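 Read-out is imaging of per-cell mean SDMA immunofluorescence (Alexa 488), with cells segmented by DAPI. Cells, MTAP-deleted or wild-type HCT116, were exposed to compound for 3 days at 37 °C before fixation. EC50 derived by 4-parameter non-linear logistic regression.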

[6] = HCT-116, 168 h, 7 days of treatment, CTG, read-out: CC50-HCT116-MTAP^del
[7] = HCT-116, cell viability, class symbols, read-out: CC50
[8] = HCT-116, cell viability assay, class symbols, read-out: CC50

SMILES	Papp A→B at 2 h, 1 µM [2]	solubility at 24 h [3]	EC50 selectivity [5]	EC50 [5]	CC50 at 7 days [1]	Selectivity [4]	plasma-adjusted CC50 (paCC50) ([4]; HCT-116)	CC50 [4, 6]	CC50 [4, 7]	CC50 [4, 8]
Cc1ncc2c(N)nc3cc(F)c(C(=O)N4CCC[C@@H]5Oc6nc(C(F)(F)F)ccc6[C@@H]54)cc3n12 [Ff-363, (4-amino-7-fluoro-1-methylimidazo[1,5-a]quinoxalin-8-yl)((4aS,9bS)-7-(trifluoromethyl)-3,4,4a,9b-tetrahydrofuro[2,3-b:4,5-b′]dipyridin-1(2H)-yl)methanone]	13.4 ×10⁻⁶ cm/s	21.8 µM (≈ 10.6 µg/mL)			2040 nM	127	196 nM	16 nM	< 100 nM	
Cc1ncn2c1c(N)nc1cc(F)c(C(=O)N3CCCC[C@@H]3c3ccc(S(F)(F)(F)(F)F)cc3)cc12 [Ff-402, (R)-(4-amino-7-fluoro-3-methylimidazo[1,5-a]quinoxalin-8-yl)(2-(4-(pentafluoro-16-sulfaneyl)phenyl)piperidin-1-yl)methanone]		18.3 µM (≈ 9.69 µg/mL)			2520 nM	84	40 nM	30 nM		< 100 nM
Nc1nc2cnc(C(=O)N3CCC[C@@H]4Oc5cc(C(F)(F)F)c(F)cc5[C@@H]43)cc2n2cncc12 [Ff-115, (4-aminoimidazo[1,5-a]pyrido[3,4-e]pyrazin-8-yl)((4aS,9bS)-8-fluoro-7-(trifluoromethyl)-3,4,4a,9b-tetrahydrobenzofuro[3,2-b]pyridin-1(2H)-yl)methanone]	7.6 ×10⁻⁶ cm/s	< 1 µM			478 nM	48	202 nM	10 nM	< 100 nM	
Cc1ncn2c1c(N)nc1cc(F)c(C(=O)N3CCC[C@@H]4Oc5cc(C(F)(F)F)ccc5[C@@H]43)cc12 [Ff-379, (4-amino-7-fluoro-3-methylimidazo[1,5-a]quinoxalin-8-yl)((4aS,9bS)-7-(trifluoromethyl)-3,4,4a,9b-tetrahydrobenzofuro[3,2-b]pyridin-1(2H)-yl)methanone]	10 ×10⁻⁶ cm/s	< 1 µM			730 nM	56		13 nM		< 100 nM
Nc1nc2cnc(C(=O)N3C[C@H](F)CC4Oc5cc(C(F)(F)F)ccc5[C@@H]43)cc2n2cncc12 (mixture of isomers) [Ff-113, Rac-(4-aminoimidazo[1,5-a]pyrido[3,4-e]pyrazin-8-yl)((3R,4aS,9bS)-3-fluoro-7-(trifluoromethyl)-3,4,4a,9b-tetrahydrobenzofuro[3,2-b]pyridin-1(2H)-yl)methanone]	12.3 ×10⁻⁶ cm/s	1.1 µM (≈ 0.52 µg/mL)			2570 nM	86		30 nM	< 100 nM	
Cc1ncn2c1c(N)nc1cnc(C(=O)N3CC[C@H]4C[C@@H]3c3ccc(OC(F)(F)F)cc3O4)cc12 [Ff-632, (4-amino-3-methylimidazo[1,5-a]pyrido[3,4-e]pyrazin-8-yl)((2S,6R)-9-(trifluoromethoxy)-3,4-dihydro-2H-2,6-methanobenzo[b][1,5]oxazocin-5(6H)-yl)methanone]					1680 nM	93	270 nM	18 nM		< 100 nM
Cc1cc2nc(N)c3cncn3c2cc1C(=O)N1CCC[C@@H]2Oc3cc(C(F)(F)F)ccc3[C@@H]21 [Ff-368, (4-amino-7-methylimidazo[1,5-a]quinoxalin-8-yl)((4aS,9bS)-7-(trifluoromethyl)-3,4,4a,9b-tetrahydrobenzofuro[3,2-b]pyridin-1(2H)-yl)methanone]			47	≤ 1 nM	178 nM	59		3 nM		< 100 nM

More lines, main results first:

Papp A→B at 2 h, 1 µM [2]	solubility at 24 h [3]	EC50 selectivity [5]	EC50 [5]	SMILES	CC50 at 7 days [1]	Selectivity [4]	plasma-adjusted CC50 (paCC50) ([4]; HCT-116)	CC50 [4, 6]	CC50 [4, 7]	CC50 [4, 8]
10.9 ×10⁻⁶ cm/s	2.6 µM (≈ 1.26 µg/mL)			Cc1ncc2c(N)nc3cnc(C(=O)N4CC[C@H]5C[C@@H]4c4ccc(C(F)(F)F)c(F)c4O5)cc3n12 [Ff-699, (4-amino-1-methylimidazo[1,5-a]pyrido[3,4-e]pyrazin-8-yl)((2S,6R)-10-fluoro-9-(trifluoromethyl)-3,4-dihydro-2H-2,6-methanobenzo[b][1,5]oxazocin-5(6H)-yl)methanone]	1110 nM	74	237 nM	15 nM		
	< 1 µM			Nc1nc2cc(F)c(C(=O)N3CCC[C@@H]4Oc5cc(OC(F)(F)F)cc(F)c5[C@@H]43)cc2n2cncc12 [Fg-68, (4-amino-7-fluoroimidazo[1,5-a]quinoxalin-8-yl)((4aS,9bS)-9-fluoro-7-(trifluoromethoxy)-3,4,4a,9b-tetrahydrobenzofuro[3,2-b]pyridin-1(2H)-yl)methanone]	708 nM	89	130 nM	8 nM		
	1.2 µM (≈ 0.566 µg/mL)			Nc1nc2cc(F)c(C(=O)N3CCC[C@@H]4Oc5ccc(C(F)(F)F)cc5[C@@H]43)cc2n2cncc12 [Ff-620, (4-amino-7-fluoroimidazo[1,5-a]quinoxalin-8-yl)((4aS,9bS)-8-(trifluoromethyl)-3,4,4a,9b-tetrahydrobenzofuro[3,2-b]pyridin-1(2H)-yl)methanone]	1550 nM	50		31 nM		< 100 nM
		82	1 to 5 nM	Cc1ncn2c1c(N)nc1cnc(C(=O)N3CC[C@H]4C[C@@H]3c3ccc(C(F)(F)F)c(F)c3O4)cc12 [Ff-633, (4-amino-3-methylimidazo[1,5-a]pyrido[3,4-e]pyrazin-8-yl)((2S,6R)-10-fluoro-9-(trifluoromethyl)-3,4-dihydro-2H-2,6-methanobenzo[b][1,5]oxazocin-5(6H)-yl)methanone]	2080 nM	104		20 nM		< 100 nM
	18.6 µM (≈ 9.08 µg/mL)			Nc1nc2cnc(C(=O)N3CC[C@H]4C[C@@H]3c3c(F)cc(OC(F)(F)F)cc3O4)cc2n2cncc12 (single isomer, unassigned) [Ff-692]	969 nM	69	139 nM	14 nM		
		255	> 5 nM	CN(C(=O)c1ccc2nc(N)n3cncc3c2c1)[C@@H]1COc2cc(C(F)(F)F)ccc21 [Fg-9, (S)-5-amino-N-methyl-N-(6-(trifluoromethyl)-2,3-dihydrobenzofuran-3-yl)imidazo[1,5-c]quinazoline-9-carboxamide]						> 1000 nM
